Assay results taken from PMC12775434, “Ultra-large virtual screening unveils potent agonists of the neuromodulatory orphan receptor GPR139” (Nature Communications, 2025).
Where “and” joins values, the source holds several entries; their conditions need not be identical. Equal values may be shown once.

Molecular target: T1, GPR139 (Homo sapiens, UniProt Q6DWJ6)
T1 sequence (Q6DWJ6 1-353): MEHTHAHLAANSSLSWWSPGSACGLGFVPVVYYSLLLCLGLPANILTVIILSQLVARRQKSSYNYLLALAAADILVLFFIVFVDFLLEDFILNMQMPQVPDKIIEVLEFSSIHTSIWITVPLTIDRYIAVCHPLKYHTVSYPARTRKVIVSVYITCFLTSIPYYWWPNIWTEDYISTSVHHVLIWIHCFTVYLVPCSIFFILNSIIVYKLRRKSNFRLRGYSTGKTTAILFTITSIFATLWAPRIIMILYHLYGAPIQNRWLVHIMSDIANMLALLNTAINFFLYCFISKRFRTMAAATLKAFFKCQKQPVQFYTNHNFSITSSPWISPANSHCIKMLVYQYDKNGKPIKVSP
Test: Ca2+ mobilization assay, agonist mode, stable GPR139-CHOk1 cell line
Assay type: cell-based
Conditions: for EC50: GPR139-CHOk1, read-out: EC50, Ca2+ mobilization; for Emax: Supplementary Table 2, normalized to Lundbeck Cmp 1a, mean ± SEM, read-out: Emax (%) Ca2+
Procedure, shortened: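 Agonist activity of compounds is assessed in stably transfected CHO-K1 cells using the calcium dye Fluo-4 at 37 °C in HEPES-buffered HBSS (pH 7.4). Efficacy is expressed relative to the reference agonist Lundbeck Cmp 1a, set as 100%.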

COc1ccccc1-c1nc(CC(=O)NC(C)c2ccccc2)no1 (stereo not shown) [Compound 1.2, COC1=C(C2=NC(CC(NC(C3=CC=CC=C3)C)=O)=NO2)C=CC=C1]
Ca2+ signal (% of Cmp 1a) (Agonist mode, individual replicates (Supplementary Figure 4)): 84 % of Cmp 1a and 90 % of Cmp 1a and 64 % of Cmp 1a | fold improved potency compared to compound 1 (Ca2+ mobilization EC50): 3 fold | EC50: 50 nM | Emax: 116 ± 6% | Ca2+ signal (% of Cmp 1a) (log [Compound] M = -4.5, individual replicate columns): 101 % of Cmp 1a and 98 % of Cmp 1a and 89 % of Cmp 1a and 111 % of Cmp 1a and 113 % of Cmp 1a | Ca2+ signal (% of Cmp 1a) (log [Compound] M = -5.0, individual replicate columns): 95 % of Cmp 1a and 88 % of Cmp 1a and 96 % of Cmp 1a and 108 % of Cmp 1a (2×) | Ca2+ signal (% of Cmp 1a) (log [Compound] M = -5.5, individual replicate columns): 86 % of Cmp 1a and 100 % of Cmp 1a and 98 % of Cmp 1a and 101 % of Cmp 1a and 103 % of Cmp 1a | Ca2+ signal (% of Cmp 1a) (log [Compound] M = -6.0, individual replicate columns): 77 % of Cmp 1a (2×) and 83 % of Cmp 1a and 90 % of Cmp 1a and 93 % of Cmp 1a | Ca2+ signal (% of Cmp 1a) (log [Compound] M = -6.5, individual replicate columns): 65 % of Cmp 1a and 81 % of Cmp 1a and 77 % of Cmp 1a and 70 % of Cmp 1a and 86 % of Cmp 1a | Ca2+ signal (% of Cmp 1a) (log [Compound] M = -7.0, individual replicate columns): 63 % of Cmp 1a (2×) and 64 % of Cmp 1a and 53 % of Cmp 1a and 56 % of Cmp 1a | Ca2+ signal (% of Cmp 1a) (log [Compound] M = -7.5, individual replicate columns): 46 % of Cmp 1a and 38 % of Cmp 1a and 39 % of Cmp 1a and 41 % of Cmp 1a and 52 % of Cmp 1a | Ca2+ signal (% of Cmp 1a) (log [Compound] M = -8.0, individual replicate columns): 14 % of Cmp 1a and 11 % of Cmp 1a (2×) and 15 % of Cmp 1a and 18 % of Cmp 1a | Ca2+ signal (% of Cmp 1a) (log [Compound] M = -8.5, individual replicate columns): 3.23 % of Cmp 1a and -2.25 % of Cmp 1a and 2.37 % of Cmp 1a and 7.37 % of Cmp 1a and 3.35 % of Cmp 1a | Ca2+ signal (% of Cmp 1a) (log [Compound] M = -9.0, individual replicate columns): 5 % of Cmp 1a and -0.0349 % of Cmp 1a and -0.541 % of Cmp 1a and 0.358 % of Cmp 1a and 0.331 % of Cmp 1a

Cc1cc(-c2nc(CC(=O)NC(C)c3ccccc3)no2)sc1C (stereo not shown) [Compound 1, CC(NC(=O)CC1=NOC(=N1)C2=CC(C)=C(C)S2)C=3C=CC=CC3]
Ca2+ signal (% of Cmp 1a) (0.1 µM, individual replicates (Supplementary Figure 3)): 36.2 % of Cmp 1a and 58.0 % of Cmp 1a | Ca2+ signal (% of Cmp 1a) (1 µM, individual replicates (Supplementary Figure 3)): 74.5 % of Cmp 1a and 72.2 % of Cmp 1a | Ca2+ signal (% of Cmp 1a) (10 µM, individual replicates (Supplementary Figure 3)): 88.7 % of Cmp 1a and 74.0 % of Cmp 1a | Ca2+ signal (% of Cmp 1a) (Agonist mode, individual replicates (Supplementary Figure 1)): 94 % of Cmp 1a (2×) and 99 % of Cmp 1a | EC50: 160 nM | Emax: 94 ± 3% | Ca2+ signal (% of Cmp 1a) (log [Compound] M -4.5, replicate experiments): 84 % of Cmp 1a and 91 % of Cmp 1a and 93 % of Cmp 1a | Ca2+ signal (% of Cmp 1a) (log [Compound] M -5.0, replicate experiments): 91 % of Cmp 1a and 83 % of Cmp 1a and 90 % of Cmp 1a | Ca2+ signal (% of Cmp 1a) (log [Compound] M -5.5, replicate experiments): 79 % of Cmp 1a | Ca2+ signal (% of Cmp 1a) (log [Compound] M -6.0, replicate experiments): 79 % of Cmp 1a and 67 % of Cmp 1a and 70 % of Cmp 1a | Ca2+ signal (% of Cmp 1a) (log [Compound] M -6.5, replicate experiments): 57 % of Cmp 1a and 52 % of Cmp 1a and 53 % of Cmp 1a | Ca2+ signal (% of Cmp 1a) (log [Compound] M -7.0, replicate experiments): 45 % of Cmp 1a and 26 % of Cmp 1a and 43 % of Cmp 1a | Ca2+ signal (% of Cmp 1a) (log [Compound] M -7.5, replicate experiments): 27 % of Cmp 1a and 24 % of Cmp 1a and 16 % of Cmp 1a | Ca2+ signal (% of Cmp 1a) (log [Compound] M -8.0, replicate experiments): 10 % of Cmp 1a and 2 % of Cmp 1a and 7.42 % of Cmp 1a | Ca2+ signal (% of Cmp 1a) (log [Compound] M -8.5, replicate experiments): 1.62 % of Cmp 1a and 6 % of Cmp 1a and 3.64 % of Cmp 1a | Ca2+ signal (% of Cmp 1a) (log [Compound] M -9.0, replicate experiments): 6 % of Cmp 1a and -1.9 % of Cmp 1a and 3.54 % of Cmp 1a | Ca2+ signal (% of Cmp 1a) (primary screen, 10 µM compound, agonist mode, three columns = independent experiments): 94 % of Cmp 1a and 99 % of Cmp 1a
